Among the data in patent US20060258683A1, “Para-sulfonyl substituted phenyl compounds as modulators of ppars” (priority 2003, published 2006) are EC50 values, retold here.

Common to all, as to format: cell-based
The target of assay [1] is T1, PPARδ (Homo sapiens, UniProt Q03181).
T1 construct: expressed in transfected cells; host or cells: CV-1 cells
T1 sequence (Q03181 211-439 limits assumed): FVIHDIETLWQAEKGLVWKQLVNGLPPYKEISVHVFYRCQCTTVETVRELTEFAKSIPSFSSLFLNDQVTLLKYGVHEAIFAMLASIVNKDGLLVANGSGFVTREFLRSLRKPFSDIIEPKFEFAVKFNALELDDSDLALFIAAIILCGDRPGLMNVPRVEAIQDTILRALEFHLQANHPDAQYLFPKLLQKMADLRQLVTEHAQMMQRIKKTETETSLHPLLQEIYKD
Nature of the assay: PPAR-delta EC50, functional cell (transactivation) assay. The source says:
(§1) The following transfection assay methods are provided by way of example only. Compounds may be screened for functional potency in transient transfection assays in CV-1 cells for their ability to activate the PPAR subtypes (transactivation assay). A previously established chimeric receptor system was utilized to allow comparison of the relative transcriptional activity of the receptor subtypes on the same target gene and to prevent endogenous receptor activation from complicating the interpretation of results. See, for example, Lehmann, J. M.; Moore, L. B.; Smith-Oliver, T. A; Wilkinson, W. O.; Willson, T. M.; Kliewer, S. A., An antidiabetic thiazolidinedione is a high affinity ligand for peroxisome proliferator-activated receptor γ(PPARγ), J. Biol. Chem., 1995, 270, 12953-6. The ligand binding domains for murine and human PPAR-alpha, PPAR-gamma, and PPAR-delta are each fused to the yeast transcription factor GAL4 DNA binding domain. CV-1 cells were transiently transfected with expression vectors for the respective PPAR chimera along with a reporter construct containing five copies of the GAL4 DNA binding site driving expression of secreted placental alkaline phosphatase (SPAP) and p-galactosidase. After 16 h, the medium is exchanged to DME medium supplemented with 10% delipidated fetal calf serum and the test compound at the appropriate concentration. After an additional 24 h, cell extracts are prepared and assayed for alkaline phosphatase and pgalactosidase activity. Alkaline phosphatase activity was corrected for transfection efficiency using the p-galactosidase activity as an internal standard (see, for example, Kliewer, S. A., et. al. Cell 1995, 83, 813-819. Rosiglitazone is used as a positive control in the hPPARγ assay. The positive control in the hPPAR-alpha and hPPAR-delta assays was 2-[4-(2-(3-(4-fluorophenyl)-1heptylureido)ethyl)-phenoxy]-2-methylpropionic acid, which can be prepared as described in Brown, Peter J., et. al. Synthesis (7), 778-782 (1997), or patent publication WO 9736579.
(§2) Compounds of Examples 1-41 were assayed to measure their biological activity with respect to their EC50 values and efficacy for modulating PPAR-alpha, PPAR-gamma, and PPAR-delta as set forth in Table 2.

Assay [2] deals with T2, PPARα (Homo sapiens, UniProt Q07869).
T2 construct: expressed in transfected cells; host or cells: CV-1 cells
T2 sequence (Q07869 239-466 limits assumed): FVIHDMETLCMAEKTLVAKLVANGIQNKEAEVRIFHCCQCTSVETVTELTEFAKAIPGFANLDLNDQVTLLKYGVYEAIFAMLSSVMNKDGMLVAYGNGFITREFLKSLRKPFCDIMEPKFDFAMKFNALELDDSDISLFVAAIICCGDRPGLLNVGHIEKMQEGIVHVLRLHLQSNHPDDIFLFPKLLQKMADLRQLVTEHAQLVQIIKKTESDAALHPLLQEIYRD
The experiment in a line: PPAR-alpha EC50, functional cell (transactivation) assay.
Source text: as §1, §2

Assay [3] concerns the target T3, PPARγ (Homo sapiens, UniProt P37231).
T3 construct: expressed in transfected cells; host or cells: CV-1 cells
T3 sequence (P37231 238-503 limits assumed): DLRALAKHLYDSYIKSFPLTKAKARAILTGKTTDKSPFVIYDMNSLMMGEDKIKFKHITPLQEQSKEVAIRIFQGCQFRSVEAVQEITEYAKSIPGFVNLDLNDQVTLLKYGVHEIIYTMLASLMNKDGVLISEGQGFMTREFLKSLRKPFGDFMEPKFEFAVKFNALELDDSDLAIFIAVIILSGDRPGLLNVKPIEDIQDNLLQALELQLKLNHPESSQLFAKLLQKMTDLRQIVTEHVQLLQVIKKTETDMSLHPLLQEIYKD
The experiment in a line: PPAR-gamma EC50, functional cell (transactivation) assay.
Source text: as §1, §2

Structures are written as SMILES.

Broadly, the EC50 is the concentration at which the effect is half-maximal. A high value points to weaker potency. Take `COc1ccc(N2CCN(S(=O)(=O)c3ccc(OC(C)(C)C(=O)O)c(C)c3)CC2)cc1`: the EC50 in assay [1] is 1 to 100 µM; in assay [2], more than 100 µM; in assay [3], 1 to 100 µM.

Consider `CC(C)(Oc1ccc(S(=O)(=O)N2CCN(c3ccccc3)CC2)cc1)C(=O)O`, for which the EC50 in assay [1] is 1 to 100 µM; in assay [2], more than 100 µM; in assay [3] it was more than 100 µM.

Turning to `COc1cccc(N2CCN(S(=O)(=O)c3ccc(OC(C)(C)C(=O)O)c(C)c3)CC2)c1`, the EC50 in assay [1], in assay [2] and in assay [3] was 1 to 100 µM in each case.

On to `CC(C)(Oc1ccc(S(=O)(=O)N2CCN(c3ccccn3)CC2)cc1)C(=O)O`, for which the EC50 in assay [1], in assay [2] and in assay [3] was more than 100 µM in each case.

Take `Cc1ccc(C)c(N2CCN(S(=O)(=O)c3ccc(OC(C)(C)C(=O)O)c(C)c3)CC2)c1`: the EC50 in assay [1] was 1 to 100 µM; in assay [2] it was more than 100 µM; in assay [3], 1 to 100 µM.

Consider `Cc1cc(S(=O)(=O)N2CCN(Cc3ccc(F)cc3)CC2)ccc1OC(C)(C)C(=O)O`, for which the EC50 in assay [1] was 1 to 100 µM; in assay [2], more than 100 µM; in assay [3], 1 to 100 µM.
